The NIST ThermoML archive (doi:10.1021/acs.jced.8b00614)
Numbers after ± are expanded uncertainties.

Experiments:
[1] = refractive index (Na D-line) (dimensionless); details: 298.2 K; 101.33 kPa; Liquid; Standard Abbe refractometry
[2] = Boiling temperature at pressure P; details: Liquid, Ebulliometric method (Recirculating still)
[3] = Liquid; for mass density: 298.2 K, 101.33 kPa, Vibrating tube method; for vapor or sublimation pressure: Chromatography

Structure (SMILES) | refractive index [1] | Boiling temperature at pressure P ([2]; 5 kPa) | Boiling temperature at pressure P ([2]; 10 kPa) | Boiling temperature at pressure P ([2]; 20 kPa) | Boiling temperature at pressure P ([2]; 30 kPa) | Boiling temperature at pressure P ([2]; 40 kPa) | Boiling temperature at pressure P ([2]; 50 kPa) | Boiling temperature at pressure P ([2]; 60 kPa) | Boiling temperature at pressure P ([2]; 70 kPa) | Boiling temperature at pressure P ([2]; 90 kPa) | Boiling temperature at pressure P ([2]; 99.7 kPa) | mass density [3] | vapor or sublimation pressure ([3]; 307.2 K) | vapor or sublimation pressure ([3]; 317.2 K) | vapor or sublimation pressure ([3]; 327.2 K) | vapor or sublimation pressure ([3]; 350.2 K) | vapor or sublimation pressure ([3]; 360.2 K) | vapor or sublimation pressure ([3]; 370.2 K) | Boiling temperature at pressure P ([2]; 79.9 kPa) | also measured
CC(C)CC(C)(C)C [2,2,4-trimethylpentane] | 1.3891 ± 0.0036 | 19.4 ± 0.4 °C | 34.0 ± 0.3 °C | 50.7 ± 0.2 °C | 61.4 ± 0.2 °C | 69.5 ± 0.2 °C | 76.1 ± 0.1 °C | 81.8 ± 0.1 °C | 86.7 ± 0.1 °C | 95.2 ± 0.1 °C | 98.8 ± 0.1 °C | 687.73 ± 3.2 kg/m3 | 10 ± 0.8 kPa | 15.3 ± 1.2 kPa | 22.8 ± 1.8 kPa | 51.6 ± 4 kPa | 70.7 ± 5.5 kPa | 95 ± 7.4 kPa | – | Boiling temperature at pressure P ([2]; 80 kPa): 91.1 ± 0.1 °C
COC(C)(C)C [2-methoxy-2-methylpropane] | 1.36632 ± 0.0036 | – | – | 13.0 ± 0.2 °C | 22.2 ± 0.2 °C | 29.5 ± 0.1 °C | 35.2 ± 0.1 °C | 40.2 ± 0.1 °C | 44.5 ± 0.1 °C | 51.8 ± 1.5 °C | 55.0 ± 1.5 °C | 735.38 ± 3.2 kg/m3 | 47.7 ± 3.7 kPa | 68.9 ± 5.3 kPa | 97.1 ± 7.5 kPa | – | – | – | 48.4 ± 0.1 °C | –
CCCCCO [pentan-1-ol] | 1.40764 ± 0.0036 | 68.2 ± 0.6 °C | 81.4 ± 0.3 °C | 96 ± 0.2 °C | 105.2 ± 0.2 °C | 112.4 ± 0.1 °C | 118.2 ± 0.1 °C | 123.1 ± 0.1 °C | 127.2 ± 0.1 °C | 134.6 ± 1.5 °C | 137.7 ± 1.5 °C | 810.9 ± 3.2 kg/m3 | – | 1.1 ± 0.1 kPa | 2.1 ± 0.2 kPa | 8 ± 0.6 kPa | 13.3 ± 1 kPa | 21 ± 1.6 kPa | 131.1 ± 0.1 °C | Boiling temperature at pressure P ([2]; 1.1 kPa): 44.2 ± 0.9 °C
